In paper PMC12951562, “SH2scan: Mapping SH2 Domain-Ligand Binding Selectivity for Inhibitors and Degraders” (Journal of Medicinal Chemistry, 2026):
Like-named read-outs stand apart in the source and are kept apart here. Non-standard residues stand in square brackets, D forms with d. Residues, ends and D or L forms follow the SMILES beside them. *: point of attachment. pY = N[C@@H](Cc1ccc(OP(=O)(O)O)cc1)C(=O)O; Caffeoyl = O=C(/C=C/c1ccc(O)c(O)c1)*

Columns and labels:
Test in all cases: biochemical
Type in all cases: binding
[1] = target: T1, FRK (Homo sapiens, UniProt P42685); details: for remaining activity at 10 µM / percent of DMSO vehicle control at 10 µM: read-out: percent of DMSO vehicle control
T1 construct: the DNA-tagged SH2 domain concentrations used in this study were <0.1 nM; made in house; host or cells: HEK293 (transient transfection; unpurified extract)

[2] = target: T2, FYN (Homo sapiens, UniProt P06241); details: for remaining activity at 10 µM / percent of DMSO vehicle control at 10 µM: read-out: percent of DMSO vehicle control
T2 construct: the DNA-tagged SH2 domain concentrations used in this study were <0.1 nM; made in house; host or cells: HEK293 (transient transfection; unpurified extract)

[3] = target: T3, PLCG2(SH2dom.N-term.) (Homo sapiens, UniProt P16885); details: for remaining activity at 10 µM: read-out: percent of DMSO vehicle control
T3 construct: SH2dom.N-term. denotes SH2 domain closest to N-terminus of protein; made in house; host or cells: HEK293 (transient transfection, unpurified extract)
T3 sequence (P16885 532-635 limits assumed): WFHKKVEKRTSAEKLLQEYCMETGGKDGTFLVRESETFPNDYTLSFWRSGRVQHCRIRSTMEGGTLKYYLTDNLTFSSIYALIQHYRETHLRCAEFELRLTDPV

[4] = target: T4, RASA1(SH2dom.N-term.) (Homo sapiens, UniProt P20936); details: for remaining activity at 10 µM: read-out: percent of DMSO vehicle control
T4 construct: SH2dom.N-term. denotes SH2 domain closest to N-terminus of protein; made in house; host or cells: HEK293 (transient transfection), unpurified extract
T4 sequence (P20936 181-272 limits assumed): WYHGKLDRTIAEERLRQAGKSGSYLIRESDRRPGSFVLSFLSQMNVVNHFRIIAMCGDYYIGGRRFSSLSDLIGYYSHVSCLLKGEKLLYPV

[5] = target: T5, SHC2 (Homo sapiens, UniProt P98077); details: for remaining activity at 10 µM: read-out: percent of DMSO vehicle control
T5 construct: made in house; host or cells: HEK293 (transient transfection), unpurified extract
T5 sequence (P98077 1-582): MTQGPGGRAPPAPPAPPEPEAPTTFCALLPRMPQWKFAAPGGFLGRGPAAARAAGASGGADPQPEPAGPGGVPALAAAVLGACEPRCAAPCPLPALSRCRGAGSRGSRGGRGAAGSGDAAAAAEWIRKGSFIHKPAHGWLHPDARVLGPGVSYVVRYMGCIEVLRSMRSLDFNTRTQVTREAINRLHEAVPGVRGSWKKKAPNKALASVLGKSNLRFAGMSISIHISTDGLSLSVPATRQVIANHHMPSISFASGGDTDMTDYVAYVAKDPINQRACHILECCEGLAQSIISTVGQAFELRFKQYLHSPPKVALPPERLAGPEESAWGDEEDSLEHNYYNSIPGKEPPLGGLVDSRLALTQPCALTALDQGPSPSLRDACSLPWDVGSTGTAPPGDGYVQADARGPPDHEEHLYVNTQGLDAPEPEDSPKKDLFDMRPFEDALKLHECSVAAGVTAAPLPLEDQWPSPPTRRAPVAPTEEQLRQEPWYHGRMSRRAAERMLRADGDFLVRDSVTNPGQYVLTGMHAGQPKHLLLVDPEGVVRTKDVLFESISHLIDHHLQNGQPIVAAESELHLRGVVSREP

[6] = target: T6, SHC4 (Homo sapiens, UniProt Q6S5L8); details: for remaining activity at 10 µM: read-out: percent of DMSO vehicle control
T6 construct: made in house; host or cells: HEK293 (transient transfection), unpurified extract
T6 sequence (Q6S5L8 1-630): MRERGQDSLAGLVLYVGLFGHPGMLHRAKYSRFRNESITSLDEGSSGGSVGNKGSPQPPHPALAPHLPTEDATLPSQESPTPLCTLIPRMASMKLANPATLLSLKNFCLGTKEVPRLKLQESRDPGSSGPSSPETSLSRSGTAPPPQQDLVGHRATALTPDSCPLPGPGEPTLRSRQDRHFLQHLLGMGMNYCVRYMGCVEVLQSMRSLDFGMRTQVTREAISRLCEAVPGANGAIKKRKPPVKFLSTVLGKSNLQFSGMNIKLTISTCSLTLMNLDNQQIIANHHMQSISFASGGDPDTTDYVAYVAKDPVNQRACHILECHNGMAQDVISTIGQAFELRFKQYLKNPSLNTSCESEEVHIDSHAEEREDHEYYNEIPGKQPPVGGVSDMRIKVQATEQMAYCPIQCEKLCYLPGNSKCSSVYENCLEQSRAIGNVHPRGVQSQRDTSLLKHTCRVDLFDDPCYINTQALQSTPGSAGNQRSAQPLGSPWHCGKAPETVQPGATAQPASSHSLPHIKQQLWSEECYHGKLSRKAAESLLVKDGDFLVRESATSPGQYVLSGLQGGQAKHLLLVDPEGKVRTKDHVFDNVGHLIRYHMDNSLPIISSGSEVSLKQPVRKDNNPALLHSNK

[7] = target: T7, STAP1 (Homo sapiens, UniProt Q9ULZ2); details: for remaining activity at 10 µM: read-out: percent of DMSO vehicle control
T7 construct: made in house; host or cells: HEK293 (transient transfection), unpurified extract
T7 sequence (Q9ULZ2 1-295): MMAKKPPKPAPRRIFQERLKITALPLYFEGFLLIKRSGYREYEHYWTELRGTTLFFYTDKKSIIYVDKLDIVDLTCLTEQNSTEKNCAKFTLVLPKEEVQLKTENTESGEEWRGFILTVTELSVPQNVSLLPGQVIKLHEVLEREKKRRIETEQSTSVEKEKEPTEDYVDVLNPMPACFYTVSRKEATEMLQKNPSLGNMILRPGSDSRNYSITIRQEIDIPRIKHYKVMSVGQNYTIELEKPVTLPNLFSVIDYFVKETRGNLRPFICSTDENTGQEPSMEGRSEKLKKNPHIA

[8] = target: T8, STAP2 (Homo sapiens, UniProt Q9UGK3); details: for remaining activity at 10 µM / percent of DMSO vehicle control at 10 µM: read-out: percent of DMSO vehicle control
T8 construct: made in house; host or cells: HEK293 (transient transfection), unpurified extract
T8 sequence (Q9UGK3 1-403): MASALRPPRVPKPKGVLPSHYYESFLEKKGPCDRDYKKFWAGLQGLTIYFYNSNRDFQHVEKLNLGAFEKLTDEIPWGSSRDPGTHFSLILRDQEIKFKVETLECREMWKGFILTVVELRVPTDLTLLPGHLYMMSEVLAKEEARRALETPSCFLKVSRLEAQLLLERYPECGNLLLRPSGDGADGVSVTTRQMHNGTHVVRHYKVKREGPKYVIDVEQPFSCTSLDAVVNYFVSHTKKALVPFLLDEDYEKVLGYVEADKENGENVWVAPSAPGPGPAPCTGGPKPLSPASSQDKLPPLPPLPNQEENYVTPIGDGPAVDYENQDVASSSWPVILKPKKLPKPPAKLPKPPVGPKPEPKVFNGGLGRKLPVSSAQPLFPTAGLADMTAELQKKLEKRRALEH

T1 sequence (P42685 116-208 limits assumed): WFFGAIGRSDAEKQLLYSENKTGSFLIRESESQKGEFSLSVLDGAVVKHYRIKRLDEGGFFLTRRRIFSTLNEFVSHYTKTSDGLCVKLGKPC
T2 sequence (P06241 149-246 limits assumed): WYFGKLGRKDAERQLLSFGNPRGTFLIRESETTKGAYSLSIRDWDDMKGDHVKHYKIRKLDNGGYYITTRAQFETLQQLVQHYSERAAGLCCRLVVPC

SMILES	remaining activity at 10 µM ([1]; primary screen, 10 μM) [%]	remaining activity at 10 µM ([2]; primary screen, 10 μM) [%]	remaining activity at 10 µM ([3]; primary screen, 10 μM) [%]	remaining activity at 10 µM ([4]; primary screen, 10 μM) [%]	remaining activity at 10 µM ([5]; primary screen, 10 μM) [%]	remaining activity at 10 µM ([6]; primary screen, 10 μM) [%]	remaining activity at 10 µM ([7]; primary screen, 10 μM) [%]	remaining activity at 10 µM ([8]; primary screen, 10 μM) [%]	percent of DMSO vehicle control at 10 µM [1] [%]	percent of DMSO vehicle control at 10 µM [2] [%]	remaining activity at 10 µM [3] [%]	remaining activity at 10 µM [4] [%]	remaining activity at 10 µM [5] [%]	remaining activity at 10 µM [6] [%]	remaining activity at 10 µM [7] [%]	percent of DMSO vehicle control at 10 µM [8] [%]	further results
O=C(CCl)Nc1cccc(CNC(=O)[C@H](Cc2ccc(OP(=O)(O)O)cc2)NC(=O)Cc2ccc(F)cc2)c1 [MN551]	69 ± 8.3	83.2 ± 0.4	109	94.2 ± 3	82.9 ± 1.7	93 ± 4.4	84.3 ± 2.8	143									
CC[C@H](C)[C@H](NC(=O)[C@H](CCC(=O)O)NC(=O)[C@H](CCC(=O)O)NC(=O)[C@H](Cc1ccc(OP(=O)(O)O)cc1)NC(C)=O)C(=O)N[C@@H](CCC(=O)O)C(N)=O [Ac-pYEEIE-NH2] (Ac-[pY]EEIE-NH2)																	percent of DMSO vehicle control ([1]; primary screen, 10 μM): 82.5%; Kd [2]: 3300 nM; percent of DMSO vehicle control ([2]; primary screen, 10 μM): 21.2±2.5%; percent of DMSO vehicle control ([3]; primary screen, 10 μM): 92.3±3.3%; percent of DMSO vehicle control ([4]; primary screen, 10 μM): 121.2%; percent of DMSO vehicle control ([5]; primary screen, 10 μM): 138.0%; percent of DMSO vehicle control ([6]; primary screen, 10 μM): 119.5%; percent of DMSO vehicle control ([7]; primary screen, 10 μM): 101.0%; percent of DMSO vehicle control ([8]; primary screen, 10 μM): 80.1±5.7%
CC(=O)N1CC[C@H]2CC[C@@H](C(=O)N[C@@H](CCC(N)=O)C(=O)NC(c3ccccc3)c3ccccc3)N2C(=O)[C@@H](NC(=O)c2cc3cc(C(F)(F)P(=O)(O)O)ccc3[nH]2)C1 [SI-109]									151	97.3	112	123	131	136	104	130	
CC(=O)N[C@@H](Cc1ccc(CP(=O)(O)O)cc1)C(=O)NC1(C(=O)N[C@@H](CC(N)=O)C(=O)NCCCc2c(O)ccc3ccccc23)CCCCC1 [CGP78850]									89.4 ± 19.2	53.7 ± 4.6	87.2 ± 19.7	47.6 ± 2.5	100 ± 8.5	108 ± 7.4	113 ± 2.6	86 ± 7.4	
CC[C@H](C)[C@H](NC(=O)[C@H](CCC(=O)O)NC(=O)[C@H](CCC(=O)O)NC(=O)[C@H](Cc1ccc(OP(=O)(O)O)cc1)NC(=O)/C=C/c1ccc(O)c(O)c1)C(=O)N[C@@H](CCC(=O)O)C(=O)O [Caffeic acid-pYEEIE] (Caffeoyl-[pY]EEIE-OH)									0.1 ± 0.1	0	1.2 ± 0.1	0.1	0.3 ± 0.1	0	77.9 ± 1	58.7 ± 7.4	Kd [1]: 2.2 ± 0.47 nM; Kd [2]: 0.53 nM; Kd [3]: 1070 ± 320 nM; Kd [4]: 230 ± 410 nM; Kd [5]: 580 ± 330 nM; Kd [6]: 39 ± 6.1 nM; Kd [8]: 23200 nM
NC(=O)CC[C@H](NC(=O)[C@@H]1CC[C@@H]2CCN(C(=O)CCCCCC#Cc3cccc4c3CN(C3CCC(=O)NC3=O)C4=O)C[C@H](NC(=O)c3cc4cc(C(F)(F)P(=O)(O)O)ccc4[nH]3)C(=O)N21)C(=O)NC(c1ccccc1)c1ccccc1 (stereo partly shown) [SD-36]									155 ± 4.5	106	73.8 ± 3.7	64.7 ± 0.3	94.9 ± 2.3	100 ± 4.5	79.9 ± 5.8	36.1 ± 5.4	
CC(C)(C)[C@H](NC(=O)/C=C/c1ccc(OP(=O)(O)O)cc1)C(=O)N1CCC[C@H]1C(=O)N(c1ccccc1)c1ccc(I)cc1 [STAT6-IN-3]	59.9 ± 42.5	51.8 ± 33.2	51.6 ± 17.6	81.7 ± 8.5	85.2 ± 11.3	90.2 ± 12	76.9 ± 9.2	56.9 ± 15.1									
C/C(=C\C(=O)N[C@H](C(=O)N1CCC[C@H]1C(=O)N(c1ccccc1)c1ccc(I)cc1)C(C)(C)C)c1ccc(OP(=O)(O)O)cc1 [STAT6-IN-1]	38.3 ± 5.9	48.2 ± 2.1	20.7 ± 29.3	50.2 ± 0.4	47.3 ± 3.3	77.1 ± 7.5	65.6 ± 5.1	58.4 ± 51.4									Kd ([3]; dose-response, read-out: KD): 550 ± 14 nM; Kd ([8]; dose-response, read-out: KD): 16300 nM
O=C(COc1ccc2cc(C(=O)Nc3ccccc3)ccc2c1)NCc1ccc(OP(=O)(O)O)c(OP(=O)(O)O)c1 [Stafib-1]	65.3 ± 42.8	92.1 ± 35.5	72.6 ± 27.2	71.3 ± 8.8	83.4 ± 24.4	103	92 ± 6.8	78.7 ± 36.1									
